Series [1] is described as follows: Assay for stability in liver microsomes. The series is classed as in vitro ADME. To be noted: human liver microsomes. On the procedure: This experiment was intended to investigate the metabolic stability of the test compounds in human liver microsomes. The materials used in the experiment included 10 mM solutions of the test compounds and the control sample, human liver microsomes, and reduced nicotinamide adenine dinucleotide phosphate (NADPH) powder. In the experiment, a 100 mM potassium phosphate buffer was used as the buffer system.
The liver microsome working solution was prepared by diluting the liver microsome stock solution to 0.75 mg/mL using the 100 mM potassium phosphate buffer. Then, 5 μL of the 10 mM stock solution of the test compound was taken, and 195 μL of methanol was added. The mixture was well mixed to prepare a working solution A with a concentration of 0.25 mM.
Subsequently, the working solution A was diluted to 1.5 μM using the liver microsome working solution to prepare a compound-liver microsome mixed solution. Additionally, NADPH powder was dissolved in a 100) mM potassium phosphate buffer to prepare a 6 mM NADPH solution. The compound-liver microsome mixed solution was dispensed into a 96-well plate at 30 μL/well, with labeled time points of 0 min, 30 min, and 60 min. For 0-min samples, 180 μL of acetonitrile containing 100 ng/mL tolbutamide and 15 μL of the NADPH solution were added directly. The 96-well plate and the NADPH solution were then preheated under a 37° C. water bath for 5 min. After the preheating, 15 μL of the NADPH solution was added to each of the 30-min and 60-min sample wells. The plate was gently shaken for mixing and then incubated under the 37° C. water bath for the corresponding time. After the incubation was completed. 180 μL of acetonitrile containing 100 ng/mL tolbutamide was added to each sample well. The plate was sealed with a sealing film, shaken for 10 min (800 rpm/min), and then centrifuged for 15 min (4000 rpm). After the centrifugation, 50 μL of the supernatant was taken and added to a 96-well plate containing 150 μL of deionized water, and then the plate was sealed and shaken for 10 min (800 rpm) for uniform mixing. Subsequently sample analysis was performed using liquid chromatography-tandem mass spectrometry (LC-MS/MS).
The elimination rate constant and clearance rate of the test compound in liver microsomes were calculated using the following formulas: Remaining rate (%)=(peak area ratio of the compound to internal standard at any time point/peak area ratio of the compound to internal standard at 0 min)×100%,^4. T1/2=0.693/ke, where ke is the elimination rate constant and T1/2 is the half-life. Liver microsome intrinsic clearance rate (CLint(mic))=0.693/(T1/2× microsome protein concentration (mg/mL)). Liver intrinsic clearance rate (CLint(liver))=CLint(mic)×microsome protein-to-liver weight ratio (mg/g)×liver-to-body weight ratio (g/kg). In the formulas, CLint(mic) is the liver microsome intrinsic clearance rate, CLint(liver) is the liver intrinsic clearance rate, and CL(liver) is the liver clearance rate. For humans, the microsome protein-to-liver weight ratio was 45 mg/g, and the liver-to-body weight ratio was 20.7 g/kg.

Series [2] is described as follows: Pharmacokinetic study in rats. Type of series: in vivo, Sprague-Dawley (SD) rats. The note with it: male SD rats; for AUC / Cmax: PO (intragastric), dose 10 mg/kg. An excerpt:
A total of 6 healthy adult male Sprague-Dawley (SD) rats were provided by Zhejiang Vital River Laboratory Animal Technology Co., Ltd. For each test compound, 6 healthy adult male SD rats were selected and randomly divided into 2 groups: an intravenous administration (IV) group and an intragastric administration (PO) group. The LC-MS/MS method was used to determine the drug concentrations in the plasma of rats at different time points after intravenous and intragastric administration of the test compounds. This experiment was intended to investigate the pharmacokinetic performance of the test compounds in rats and to evaluate the pharmacokinetic characteristics. Each drug used in the experiment was prepared from the test compound powder: An appropriate amount of test compound powder was weighed out, and appropriate amounts of DMSO, a 10% aqueous Solutol HS 15 solution, and a 6% aqueous HP-β-CD solution were sequentially added according to a volume ratio of 5:10:85. The mixture was vortexed and sonicated until clarification. The final concentration of the drug in the IV group was 0.5 mg/mL, and the final concentration of the drug in the PO group was 1 mg/mL; the concentrations could be adjusted according to actual needs. For the drug in the PO group of Z504, an appropriate amount of test compound powder was weighed out, and an appropriate amount of 0.5% MC+0.2% Tween 80 aqueous solution was added. The mixture was well mixed by vortexing to give a 1 mg/mL homogeneous suspension: the concentration could be adjusted according to actual needs.
All experimental rats were fasted overnight, and food intake was resumed 4 h after administration. For the rats in the IV group, the administration volume was set at 2 mL/kg, with Z554 and Z915 administered at a dose of 0.5 mg/kg and the other compounds at a dose of 1 mg/kg. For the rats in the PO group, the administration volume was 10 mL/kg and the dose was 10 mg/kg. The administration amount was adjusted according to the body weight of the rats on the day of administration. In the experiment, blood samples were collected from the rats in the IV group at multiple time points (0.0833 h, 0.25 h, 0.5 h, 1 h, 2 h, 4 h, 7 h, and 24 h) after administration, while blood samples were collected from the PO group at 0.25 h, 0.5 h, 1 h, 2 h, 4 h, 7 h, and 24 h after administration, with approximately 100 μL collected each time via the orbital blood collection method.
The blood samples were placed in centrifuge tubes containing EDTA-K2 and centrifuged at 8000 rpm for 4 min within 30 min to separate the supernatant plasma. The resulting plasma samples were stored at −20° C. for later use. For sample analysis, 20 μL of each of plasma samples and calibration standards was added to a 96-well plate, and 160 μL of acetonitrile containing 100 ng/mL tolbutamide was added. The samples were vortexed for 5 min for uniform mixing, and then centrifuged at 4000 rpm for 15 min. After the centrifugation was completed, 50 μL of supernatant was added to a 96-well plate containing 150 μL of deionized water. The plate was then sealed and shaken for uniform mixing. Sample analysis was performed by LC-MS/MS.
The sampling volume could be adjusted according to actual needs, but the final concentration should be kept unchanged.

The mark [3] stands for this setting: Sprague-Dawley, rat, plasma, IV, dose 1 mg/kg.
The mark [4] stands for this setting: Sprague-Dawley, rat, plasma, read-out: AUC.
The mark [5] stands for this setting: Sprague-Dawley, rat, plasma, read-out: Cmax.

Where two headings read alike, the source gives them in different places.

On to `CCn1c(-c2cc(C#CCN3CCCOCC3)cnc2C(C)C)c2c3cc(ccc31)-c1csc(n1)C[C@H](NC(=O)[C@H]1[C@H](C)[C@@H]1C)C(=O)N1CCC[C@H](N1)C(=O)OCC(C)(C)C2` (atropisomer, axis not shown; (Sa)) [Compound Z811-2, (1r,2R,3S)—N-((6^3S,4S,Z)—(Sa)-1-(5-(3-(1,4-oxazepan-4-yl)prop-1-yn-1-yl)-2-isopropylpyridin-3-yl)-1^1-ethyl-10,10-dimethyl-5,7-dioxo-6^1,6^2,6^3,6^4,6^5,6^6-hexahydro-1^1H-8-oxa-2(4,2)-thiazola-1(5,3)-indola-6(1,3)-pyridazinacycloundecaphane-4-yl)-2,3-dimethylcyclopropane-1-carboxamide], for which the “T1/2” value in series [1] (NADPH, 37° C., 0/30/60 min) amounted to 38.9 min. Moreover, in series [1] (liver intrinsic clearance rate), the “CLint(liver)” value was 41.2 mL/min/kg. Besides, the “CL” value in series [2] (IV, dose 1 mg/kg) amounted to 1.14 mL/min/kg. In series [2], the “AUC” value came to 29002 ng·h/mL and the “Cmax” value is reported as 4303 ng/mL.

The compound `CCO[C@@H](C)c1ncc(N2CCN(CCS(C)(=O)=O)CC2)cc1-c1c2c3cc(ccc3n1CC)-c1csc(n1)C[C@H](NC(=O)[C@H]1[C@H](C)[C@@H]1C)C(=O)N1CCC[C@H](N1)C(=O)OCC1(CC1)C2` (single isomer, unassigned) [Compound Z378-1] showed a half-life at 1 µM in series [1] (NADPH, 37° C., 0/30/60 min) of 64.2 min. This compound also registered an intrinsic clearance (CLint scaled) at 1 µM in series [1] (liver intrinsic clearance rate) of 25 mL/min/kg.

As for `CCn1c(-c2cc(C#CCN3CCCN(C)CC3)cnc2[C@H](C)OC)c2c3cc(ccc31)-c1csc(n1)C[C@H](NC(=O)[C@H]1[C@H](C)[C@@H]1C)C(=O)N1CCC[C@H](N1)C(=O)OCC(C)(C)C2` (atropisomer, axis not shown; (Ra)) [Compound Z802, (1r,2R,3S)—N-((6^3S,4S,Z)-1^2-(5-(3-(4-methyl-1,4-diaza-1-yl)prop-1-yn-1-yl)-(Ra)-2-((S)-1-methoxyethyl)pyridin-3-yl)-1^1-ethyl-10,10-dimethyl-5,7-dioxo-6^1,6^2,6^3,6^4,6^5,6^6-hexahydro-1^1H-8-oxa-2(4,2)-thiazola-1(5,3)-indola-6(1,3)-pyridazinacycloundecaphane-4-yl)-2,3-dimethylcyclopropane-1-carboxamide], the half-life at 1 µM in series [1] (NADPH, 37° C., 0/30/60 min) is 98.7 min. The compound further had a CLint scaled at 1 µM in series [1] (liver intrinsic clearance rate) of 16.2 mL/min/kg.

`CCn1c(-c2cc(C#CCN3CCS(=O)(=O)CC3)cnc2[C@H](C)OC)c2c3cc(ccc31)-c1csc(n1)C[C@H](NC(=O)[C@H]1[C@H](C)[C@@H]1C)C(=O)N1CCC[C@H](N1)C(=O)OCC(C)(C)C2` (atropisomer, axis not shown; (Ra)) [Compound Z838, (1r,2R,3S)—N-((6^3S,4S,Z)—(Ra)-1^2-(5-(3-(1,1-dioxidothiomorpholino)prop-1-yn-1-yl)-2-((S)-1-methoxyethyl)pyridin-3-yl)-1^1-ethyl-10,10-dimethyl-5,7-dioxo-6^1,6^2,6^3,6^4,6^5,6^6-hexahydro-1^1H-8-oxa-2(4,2)-thiazola-1(5,3)-indola-6(1,3)-pyridazinacycloundecaphane-4-yl)-2,3-dimethylcyclopropane-1-carboxamide] came in with a half-life at 1 µM in series [1] (NADPH, 37° C., 0/30/60 min) of 25 min. The intrinsic metabolic clearance (CLint scaled) at 1 µM in series [1] (liver intrinsic clearance rate) is 64.2 mL/min/kg. In series [2] (setting [3]), this compound displayed a clearance of 2.51 mL/min/kg. Also, the exposure (AUC) in series [2] (setting [4]) is 3900 ng·h/mL. Besides, in series [2] (setting [5]), the highest concentration (Cmax) is 1400 ng/mL.

Regarding `CCn1c(-c2cc(N3CCN4CC5(CC5)OC[C@@H]4C3)cnc2[C@H](C)OC)c2c3cc(ccc31)-c1csc(n1)C[C@H](NC(=O)[C@H]1[C@H](C)[C@@H]1C)C(=O)N1CCC[C@H](N1)C(=O)OCC1(CC1)C2` (atropisomer, axis not shown; (Ra)) [Compound Z13], the half-life at 1 µM in series [1] (NADPH, 37° C., 0/30/60 min) came to 36.7 min. The intrinsic metabolic clearance (CLint scaled) at 1 µM in series [1] (liver intrinsic clearance rate) came to 43.7 mL/min/kg.

`CCn1c(-c2cc(N3CCN(CCS(C)(=O)=O)CC3)cnc2[C@H](C)OC)c2c3cc(ccc31)-c1csc(n1)C[C@H](NC(=O)[C@H]1[C@H](C)[C@@H]1C)C(=O)N1CCC[C@H](N1)C(=O)OCC1(CC1)C2` (single isomer, unassigned) [Compound Z367] displayed a half-life at 1 µM in series [1] (NADPH, 37° C., 0/30/60 min) of 48.2 min. In series [1] (liver intrinsic clearance rate), this compound returned an intrinsic metabolic clearance (CLint scaled) at 1 µM of 33.2 mL/min/kg.

Compound `CCn1c(-c2cc(C#CCN3CCC(C(F)(F)F)CC3)cnc2[C@H](C)OC)c2c3cc(ccc31)-c1csc(n1)C[C@H](NC(=O)[C@H]1[C@H](C)[C@@H]1C)C(=O)N1CCC[C@H](N1)C(=O)OCC(C)(C)C2` (atropisomer, axis not shown; (Ra)) [Compound Z778] came in with a half-life at 1 µM in series [1] (NADPH, 37° C., 0/30/60 min) of 50.3 min. For the same compound, the CLint scaled at 1 µM in series [1] (liver intrinsic clearance rate) was 31.9 mL/min/kg. In series [2] (setting [3]), this compound registered a clearance of 5.31 mL/min/kg. In addition, the AUC in series [2] (setting [4]) stood at 4020 ng·h/mL. Moreover, the Cmax in series [2] (setting [5]) was 702 ng/mL.

On to `CCn1c(-c2cc(C#CCN3CCS(=O)(=O)CC3)cnc2[C@H](C)OC)c2c3cc(ccc31)-c1csc(n1)C[C@H](Nc1nnc3cc(C)ccn13)C(=O)N1CCC[C@H](N1)C(=O)OCC(C)(C)C2` (atropisomer, axis not shown; (Ra)) [Compound Z911, (6^3S,4S,Z)—(Ra)-1^2-(5-(3-(1,1-dioxidothiomorpholino)prop-1-yn-1-yl)-2-((S)-1-methoxyethyl)pyridin-3-yl)-1^1-ethyl-10,10-dimethyl-4-((7-methyl-[1,2,4]triazolo[4,3-a]pyridin-3-yl)amino)-6^1,6^2,6^3,6^4,6^5,6^6-hexahydro-1^1H-8-oxa-2(4,2)-thiazola-1(5,3)-indola-6(1.3)-pyridazinacycloundecaphane-5,7-dione], for which, in series [1] (NADPH, 37° C., 0/30/60 min), the half-life at 1 µM amounted to 36 min. The CLint scaled at 1 µM in series [1] (liver intrinsic clearance rate) turned out to be 44.5 mL/min/kg. Besides, the clearance in series [2] (setting [3]) came to 0.41 mL/min/kg. Further, the AUC in series [2] (setting [4]) amounted to 2540 ng·h/mL. The Cmax in series [2] (setting [5]) stood at 427 ng/mL.

As a reminder, the AUC is the area under the concentration-time curve, a measure of exposure. As a reminder, the Cmax is the maximum level reached in the sampled fluid or tissue. As usually defined, the half-life is the time needed for the level to fall by half in the phase considered. In general, CLint scaled refers to the capacity of the preparation to metabolise the compound, expressed as a volume cleared per time. A low value points to slow turnover. The clearance is the rate of elimination divided by the concentration. Lower therefore signals a low capacity for elimination.

(Values after patent US20260234165A1, “MACROCYCLIC COMPOUNDS, PREPARATION METHOD THEREFOR, AND USE THEREOF” (GENFLEET THERAPEUTICS (SHANGHAI) INC., priority 2004, published 2026).)
